Laboratory results as given in PMC10779222, “Copper(II) Complexes with 1-(Isoquinolin-3-yl)heteroalkyl-2-ones: Synthesis, Structure and Evaluation of Anticancer, Antimicrobial and Antioxidant Potential” (International Journal of Molecular Sciences, 2023).

Key:
LS-180 (colon cancer) = test: MTT cytotoxicity assay on LS-180 cells; type: cell-based, human; conditions: 24 h incubation
Procedure: (§1) Cytotoxic activity of the investigated compounds was evaluated against T98G (glioblastoma), HepG2 (hepatoma), LS-180 (colon cancer) and A375 (melanoma) cell lines. Human normal skin fibroblasts, CCD-1059Sk (CRL-2072), were used as reference (non-cancerous) cells. All of the cell lines were obtained from American Type Culture Collection (ATCC; Manassas, VA, USA). A375, T98G and CCD-1059Sk cells were cultured in Dulbecco’s Modified Eagle’s Medium (DMEM) (Sigma Aldrich, St. Louis, MO, USA) supplemented with 10% FBS, penicillin (100 U/mL) and streptomycin (100 μg/mL). LS-180 and HepG2 cells were cultured in Eagle’s Minimum Essential Medium supplemented with 10% FBS, penicillin (100 U/mL) and streptomycin (100 μg/mL). All of the cells were maintained at 37 °C in a humidified atmosphere of 5% CO2. The compounds were dissolved in DMSO in order to obtain stock solutions. At the day of the experiment, the suspension of cells (1 × 10^5 cells/mL) was distributed onto 96-well plates at a volume of 100 μL/well. After attachment, the cells were treated with the increased concentrations of the tested compounds in medium containing 2% FBS and incubated for 24 h. Then, the medium was removed from wells, and cells were rinsed with PBS. Afterwards, 15 μL of MTT working solution (5 mg/mL in PBS) was added to each well, and the plates were incubated for 3 h. Subsequently, 100 μL of 10% SDS solution was added to each well in order to dissolve the precipitated formazan crystals. After overnight incubation at 37 °C, the absorbance of the obtained solution was measured at λ = 570 nm using a microplate reader (Epoch, BioTek Instruments, Inc., Winooski, VT, USA). At least two independent experiments were performed in triplicate. […] IC50 values of the investigated derivatives and positive control (etoposide) were calculated using the IC50 online calculator [101].

[1] = tested on: Candida glabrata ATCC 90030; test: Two-fold microdilution broth method, MIC; type: cell-based; conditions: 35 °C, 24 h
Text: (§2) Antibacterial and antifungal activities of the free ligands L2, L3 and L4 and the corresponding copper(II) complexes C2, C3 and C4 were screened using the two-fold microdilution broth method. Minimal inhibitory concentrations (MICs) of tested compounds for the panel of reference Gram-positive bacteria, including Staphylococcus aureus ATCC 25923, Staphylococcus aureus ATCC BAA-1707, Staphylococcus epidermidis ATCC 12228, Micrococcus luteus ATCC 10240 and Bacillus cereus ATCC 10876; Gram-negative bacteria, including Salmonella Typhimurium ATCC 14028, Escherichia coli ATCC 25922, Proteus mirabilis ATCC 12453, Klebsiella pneumoniae ATCC 13883 and Pseudomonas aeruginosa ATCC 9027; and yeasts, including Candida albicans ATCC 102231, Candida parapsilosis ATCC 22019 and Candida glabrata ATCC 90030 were determined. The procedure has been described in detail before. Briefly, the solutions of tested compounds dissolved in dimethylosulfoxide (DMSO) were suspended in Mueller–Hinton broth for bacteria or Mueller–Hinton broth with 2% glucose for fungi. Then, the series of two-fold dilutions were carried out in the sterile Nunc™ MicroWell™ 96-Well Microplates (ThermoFisher Scientific Inc.), obtaining concentrations from 1000 to 7.8 mg/L in the appropriate medium. Simultaneously, the inocula of 24 h cultures of microorganisms in sterile physiological saline (0.5 McFarland standard density) were prepared and added to each well, obtaining final density of 5 × 10^5 CFU/mL for bacteria and 5 × 10^4 CFU/mL for yeasts. Proper positive (inoculum without tested compound) and negative (compound without inoculum) controls were added in each microplate. After incubation (35 °C, 24 h), the growth of microorganisms was measured spectrophotometrically at 600 nm (BioTEK ELx808, Bio-Tek Instruments, Inc., Winooski, VT, USA). MICs were marked at the lowest concentration of the compound without the growth of bacteria or fungi.

[2] = tested on: Candida albicans ATCC 102231; test: Two-fold microdilution broth method, MIC; type: cell-based; conditions: 35 °C, 24 h
Text: as §2

[3] = tested on: Candida parapsilosis ATCC 22019; test: Two-fold microdilution broth method, MIC; type: cell-based; conditions: 35 °C, 24 h
Text: as §2

[4] = tested on: A375, HepG2, LS-180, T98G and CCD-1059Sk cell lines; test: MTT cytotoxicity assay, summary statements over several cell lines; type: cell-based; conditions: range over HepG2 and T98G
Procedure: as §1

T98G (glioblastoma) = test: MTT cytotoxicity assay on T98G cells; type: cell-based
Procedure: as §1

A375 (melanoma) = test: MTT cytotoxicity assay on A375 cells; type: cell-based, human; conditions: 24 h incubation
Procedure: as §1

HepG2 cells = test: Cell cycle analysis (image cytometry, DAPI) in HepG2; type: cell-based, human; conditions: C2 at IC50 concentration
Procedure: Cell cycle analysis of T98G and HepG2 cells pretreated with copper(II) complex C2 (CX) (at IC50 concentration) was performed on NucleoCounter NC-3000 Image Cytometer (ChemoMetec, Lillerod, Denmark). The investigated cells were seeded on 6-well culture plates (Corning Inc., New York, NY, USA) at the density of 1 × 10^5 cells/mL and cultured in the respective medium at 37 °C in a humidified atmosphere of 5% CO2. When the cells reached approximately 80% confluence, they were treated with C2 (CX), at a concentration of IC50, for 24 h. Subsequently, the cells were detached with trypsine, suspended in 250 μL of lysis buffer (Solution 10) supplemented with DAPI (10 μg/mL) and incubated for 5 min at 37 °C. Following this, stabilization buffer (Solution 11) was added, and the obtained cell suspension was applied on NC-slide and analyzed using NucleoCounter NC-3000 Image Cytometer equipped with NucleoView NC-3000^TM software (ChemoMetec A/S, Lillerod, Denmark). Experiments were repeated three times, and the measurements in each experiment were run in duplicate.

[5] = ABTS radical scavenging assay; conditions: ±SD; 10 min, 30 °C
Procedure: The ABTS radical scavenging assay of samples (ligands or complexes) was performed with ascorbic acid as a positive control. Briefly, 30 μL of different concentrations of the samples, dissolved in DMSO, was mixed with 170 μL of ABTS solution (2 mM ABTS diammonium salt, 3.5 mM potassium persulfate) and completed with water to a final volume of 300 μL. ABTS solution with DMSO was used as a control. […] ABTS inhibition was calculated according to the following equation:ABTS Inhibition (%) = [(Acontrol − Asample)/Acontrol] × 100% The radical scavenging activity of the samples was shown as the IC50 value (the concentration of the analyzed samples that caused a decrease in the non-reduced form of the ABTS radical by 50%).

[6] = tested on: CCD-1059Sk (human normal skin fibroblasts); test: MTT cytotoxicity assay on non-cancerous fibroblasts; type: cell-based; conditions: 24 h incubation, non-cancerous cells
Procedure: as §1

SMILES: O=C1NCCN1c1cc2ccccc2cn1.O=C1NCCN1c1cc2ccccc2cn1.[Cl][Cu][Cl] [C2, Dichloro{bis[1-(Isoquinolin-3-yl)imidazolidin-2-one]}copper(II)]
- IC50 ± SD, LS180 (LS-180 (colon cancer)): 5.88 ± 0.40 mg/L
- MIC, C. glabrata ATCC 90030 [1]: >1000 mg/L
- MIC, C. albicans ATCC 102231 [2]: 1000 mg/L
- MIC, C. parapsilosis ATCC 22019 [3]: 1000 mg/L
- IC50, HepG2 and T98G [4]: 5.04 to 6.97 mg/L
- highest concentration that did not affect the viability of T98G cells (T98G (glioblastoma); MTT assay): 0.25 µg/mL
- IC50 ± SD, T98G (T98G (glioblastoma); MTT, 24 h incubation): 6.97 ± 0.52 mg/L
- selectivity index (SI), T98G (T98G (glioblastoma); T98G compared with CCD-1059-Sk): 3.14
- IC50 ± SD, A375 (A375 (melanoma)): 28.91 ± 1.79 mg/L
- effect on cell cycle progression, HepG2 (HepG2 cells; 24 h): cell cycle arrest in the sub-G1 phase
- DNA content in the sub-G1 phase (HepG2 cells; HepG2, 24 h, control cells 10%, p < 0.0001): 29%
- IC50 ABTS [5]: 107.14 ± 1.42 mg/L
- IC50 ± SD, CCD-1059-Sk [6]: 21.86 ± 1.03 mg/L
